Source: patent US9833497B2, “Human originated EGF domain proteins and use of the same” (CHENGDU SOURCEBIO LIMITED-LIABILITY COMPANY, priority 2013, dated 2017)

Columns and labels:
Format in all cases: cell-based
Moraxella catarrhalis = experiment: MIC against Gram-negative bacteria: Moraxella catarrhalis; conditions: 5×10^5 CFU/mL
In short: (§1)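 LB broth cultures at McFarland 0.5, spun down, resuspended, diluted to 5×10^5 CFU/mL final. Two-fold serial dilutions of purified human EGF domain proteins, triplicate. 37° C, 175 rpm shaking. Endpoint: no visible growth.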

E. coli BL21 = experiment: MIC against Gram-negative bacteria: E. coli BL21; conditions: 5×10^5 CFU/mL
In short: as §1

Enterobacter cloacae = experiment: MIC against Gram-negative bacteria: Enterobacter cloacae; conditions: 5×10^5 CFU/mL
In short: as §1

Klebsiella pneumonia = experiment: MIC against Gram-negative bacteria: Klebsiella pneumonia; conditions: 5×10^5 CFU/mL
In short: as §1

Proteus vulgaris = experiment: MIC against Gram-negative bacteria: Proteus vulgaris; conditions: 5×10^5 CFU/mL
In short: as §1

Pseudomonas aeruginosa = experiment: MIC against Gram-negative bacteria: Pseudomonas aeruginosa; conditions: 5×10^5 CFU/mL
In short: as §1

Proteus mirabilis = experiment: MIC against Gram-negative bacteria: Proteus mirabilis; conditions: 5×10^5 CFU/mL
In short: as §1

Serratia marcescens = experiment: MIC against Gram-negative bacteria: Serratia marcescens; conditions: 5×10^5 CFU/mL
In short: as §1

Citrobacter diversus = experiment: MIC against Gram-negative bacteria: Citrobacter diversus; conditions: 5×10^5 CFU/mL
In short: as §1

E. coli DH5α = experiment: Antibacterial activity: MIC and growth curve against E. coli DH5α in 96-well plate; conditions: minimal inhibitory concentration against E. coli DH5α; 96-well plate, 5×10^5 CFU/mL, 37° C., judged after 8 h
In short: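 Log-phase DH5α (OD600 about 0.5, 37° C, 185 rpm in LB) was pelleted, resuspended in fresh LB and seeded at 5×10^5 CFU/mL with recombinant protein at 50, 25 and 12.5 μg/mL (two-fold series), in triplicate. Plates were shaken at 175 rpm, 37° C, and OD600 was read every 30 min. MIC was the lowest concentration with no growth.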

Aeromonas hydrophila = experiment: MIC against Gram-negative bacteria: Aeromonas hydrophila; conditions: 5×10^5 CFU/mL
In short: as §1

[1] = 10 h cultivation at 37° C., two-fold serial dilution
[2] = M. catarrhalis, 10 h cultivation at 37° C.
[3] = E. coli BL21, 10 h cultivation at 37° C.
[4] = E. cloacae, 10 h cultivation at 37° C.
[5] = K. pneumonia, 10 h cultivation at 37° C.
[6] = P. vulgaris, 10 h cultivation at 37° C.
[7] = P. aeruginosa, 10 h cultivation at 37° C.
[8] = P. mirabilis, 10 h cultivation at 37° C.
[9] = S. marcescens, 10 h cultivation at 37° C.
[10] = C. diversus, 10 h cultivation at 37° C.
[11] = A. hydrophila, 10 h cultivation at 37° C.
[12] = Moraxella catarrhalis, 96-well plate, 37° C., 10 h
[13] = E. coli BL21, 96-well plate, 37° C., 10 h
[14] = Enterobacter cloacae, 96-well plate, 37° C., 10 h
[15] = Klebsiella pneumonia, 96-well plate, 37° C., 10 h
[16] = Proteus vulgaris, 96-well plate, 37° C., 10 h
[17] = Pseudomonas aeruginosa, 96-well plate, 37° C., 10 h
[18] = Proteus mirabilis, 96-well plate, 37° C., 10 h
[19] = Serratia marcescens, 96-well plate, 37° C., 10 h
[20] = Citrobacter diversus, 96-well plate, 37° C., 10 h
[21] = Aeromonas hydrophila, 96-well plate, 37° C., 10 h

Substance: PRT464 (DLDECRVRNLCQHACRNTEGSYQCLCPAGYRLLPSGKNCQ; listed as Homo sapiens)
- MIC against M. catarrhalis (Moraxella catarrhalis; 96-well plate, 37° C., 10 h): 25 µg/mL
- MIC against E. coli BL21 (E. coli BL21; 96-well plate, 37° C., 10 h): 50 µg/mL
- MIC against E. cloacae (Enterobacter cloacae; 96-well plate, 37° C., 10 h): 12.5 µg/mL
- MIC against K. pneumonia (Klebsiella pneumonia; 96-well plate, 37° C., 10 h): 50 µg/mL
- MIC against P. vulgaris (Proteus vulgaris; 96-well plate, 37° C., 10 h): 50 µg/mL
- MIC against P. aeruginosa (Pseudomonas aeruginosa; 96-well plate, 37° C., 10 h): 12.5 µg/mL
- MIC against P. mirabilis (Proteus mirabilis; 96-well plate, 37° C., 10 h): 12.5 µg/mL
- MIC against S. marcescens (Serratia marcescens; 96-well plate, 37° C., 10 h): 12.5 µg/mL
- MIC against C. diversus (Citrobacter diversus; 96-well plate, 37° C., 10 h): 50 µg/mL
- MIC (E. coli DH5α): 12.5 µg/mL
- MIC against A. hydrophila (Aeromonas hydrophila; 96-well plate, 37° C., 10 h): 25 µg/mL

Substance: PRT1165 (NRAICRQGCSPKHGSCKLPGDCRCQYGWQGLYCD; listed as Homo sapiens)
- MIC M. catarrhalis (Moraxella catarrhalis; [1]): 25 µg/mL
- MIC E. coli BL21 (E. coli BL21; [1]): 25 µg/mL
- MIC E. cloacae (Enterobacter cloacae; [1]): 50 µg/mL
- MIC K. pneumonia (Klebsiella pneumonia; [1]): 25 µg/mL
- MIC P. vulgaris (Proteus vulgaris; [1]): 25 µg/mL
- MIC P. aeruginosa (Pseudomonas aeruginosa; [1]): 12.5 µg/mL
- MIC P. mirabilis (Proteus mirabilis; [1]): 50 µg/mL
- MIC S. marcescens (Serratia marcescens; [1]): 12.5 µg/mL
- MIC C. diversus (Citrobacter diversus; [1]): 12.5 µg/mL
- MIC (E. coli DH5α): 50 µg/mL
- MIC A. hydrophila (Aeromonas hydrophila; [1]): 25 µg/mL

Substance: PRT876 (TAKPCLSNPCKNNGMCRDGWNRYVCDCSGTGYLGRSCE; listed as Homo sapiens)
- MIC (μg/mL) M. catarrhalis (Moraxella catarrhalis; [2]): 12.5 µg/mL
- MIC (μg/mL) E. coli BL21 (E. coli BL21; [3]): 12.5 µg/mL
- MIC (μg/mL) E. cloacae (Enterobacter cloacae; [4]): 25 µg/mL
- MIC (μg/mL) K. pneumonia (Klebsiella pneumonia; [5]): 12.5 µg/mL
- MIC (μg/mL) P. vulgaris (Proteus vulgaris; [6]): 25 µg/mL
- MIC (μg/mL) P. aeruginosa (Pseudomonas aeruginosa; [7]): 12.5 µg/mL
- MIC (μg/mL) P. mirabilis (Proteus mirabilis; [8]): 25 µg/mL
- MIC (μg/mL) S. marcescens (Serratia marcescens; [9]): 25 µg/mL
- MIC (μg/mL) C. diversus (Citrobacter diversus; [10]): 25 µg/mL
- MIC (E. coli DH5α): 12.5 µg/mL
- MIC (μg/mL) A. hydrophila (Aeromonas hydrophila; [11]): 12.5 µg/mL

Substance: PRT1480 (PGPCDSQPCQNGGTCVPEGLDGYQCLCPLAFGGEANCA; listed as Homo sapiens)
- MIC against M. catarrhalis (Moraxella catarrhalis; Moraxella catarrhalis, 10 h cultivation at 37° C.): 12.5 µg/mL
- MIC against E. coli BL21 (E. coli BL21; [3]): 12.5 µg/mL
- MIC against E. cloacae (Enterobacter cloacae; Enterobacter cloacae, 10 h cultivation at 37° C.): 25 µg/mL
- MIC against K. pneumonia (Klebsiella pneumonia; Klebsiella pneumonia, 10 h cultivation at 37° C.): 12.5 µg/mL
- MIC against P. vulgaris (Proteus vulgaris; Proteus vulgaris, 10 h cultivation at 37° C.): 12.5 µg/mL
- MIC against P. aeruginosa (Pseudomonas aeruginosa; Pseudomonas aeruginosa, 10 h cultivation at 37° C.): 25 µg/mL
- MIC against P. mirabilis (Proteus mirabilis; Proteus mirabilis, 10 h cultivation at 37° C.): 50 µg/mL
- MIC against S. marcescens (Serratia marcescens; Serratia marcescens, 10 h cultivation at 37° C.): 50 µg/mL
- MIC against C. diversus (Citrobacter diversus; Citrobacter diversus, 10 h cultivation at 37° C.): 25 µg/mL
- MIC (E. coli DH5α): 50 µg/mL
- MIC against A. hydrophila (Aeromonas hydrophila; Aeromonas hydrophila, 10 h cultivation at 37° C.): 12.5 µg/mL

Substance: PRT101 (DVDECSSGQHQCDSSTVCFNTVGSYSCRCRPGWKPRHGIPNNQKDTVCE; listed as Homo sapiens)
- MIC (μg/mL) M. catarrhalis (Moraxella catarrhalis; [12]): 50 µg/mL
- MIC (μg/mL) E. coli BL21 (E. coli BL21; [13]): 50 µg/mL
- MIC (μg/mL) E. cloacae (Enterobacter cloacae; [14]): 25 µg/mL
- MIC (μg/mL) K. pneumonia (Klebsiella pneumonia; [15]): 50 µg/mL
- MIC (μg/mL) P. vulgaris (Proteus vulgaris; [16]): 12.5 µg/mL
- MIC (μg/mL) P. aeruginosa (Pseudomonas aeruginosa; [17]): 25 µg/mL
- MIC (μg/mL) P. mirabilis (Proteus mirabilis; [18]): 12.5 µg/mL
- MIC (μg/mL) S. marcescens (Serratia marcescens; [19]): 12.5 µg/mL
- MIC (μg/mL) C. diversus (Citrobacter diversus; [20]): 50 µg/mL
- MIC (E. coli DH5α): 25 µg/mL
- MIC (μg/mL) A. hydrophila (Aeromonas hydrophila; [21]): 50 µg/mL

Substance: PRT1498 (PESPCLQNPCQNDGQCREQGATFTCECEVGYGGGLCM; listed as Homo sapiens)
- MIC (μg/mL) M. catarrhalis (Moraxella catarrhalis; [12]): 12.5 µg/mL
- MIC (μg/mL) E. coli BL21 (E. coli BL21; [13]): 25 µg/mL
- MIC (μg/mL) E. cloacae (Enterobacter cloacae; [14]): 50 µg/mL
- MIC (μg/mL) K. pneumonia (Klebsiella pneumonia; [15]): 12.5 µg/mL
- MIC (μg/mL) P. vulgaris (Proteus vulgaris; [16]): 12.5 µg/mL
- MIC (μg/mL) P. aeruginosa (Pseudomonas aeruginosa; [17]): 12.5 µg/mL
- MIC (μg/mL) P. mirabilis (Proteus mirabilis; [18]): 50 µg/mL
- MIC (μg/mL) S. marcescens (Serratia marcescens; [19]): 12.5 µg/mL
- MIC (μg/mL) C. diversus (Citrobacter diversus; [20]): 50 µg/mL
- MIC (E. coli DH5α): 50 µg/mL
- MIC (μg/mL) A. hydrophila (Aeromonas hydrophila; [21]): 12.5 µg/mL

Substance: PRT254 (PCLEGGTCILSPKGASCNCPHPYTGDRCE; listed as Homo sapiens)
- MIC (μg/mL) M. catarrhalis (Moraxella catarrhalis; [2]): 25 µg/mL
- MIC (μg/mL) E. coli BL21 (E. coli BL21; [3]): 12.5 µg/mL
- MIC (μg/mL) E. cloacae (Enterobacter cloacae; [4]): 12.5 µg/mL
- MIC (μg/mL) K. pneumonia (Klebsiella pneumonia; [5]): 12.5 µg/mL
- MIC (μg/mL) P. vulgaris (Proteus vulgaris; [6]): 12.5 µg/mL
- MIC (μg/mL) P. aeruginosa (Pseudomonas aeruginosa; [7]): 12.5 µg/mL
- MIC (μg/mL) P. mirabilis (Proteus mirabilis; [8]): 12.5 µg/mL
- MIC (μg/mL) S. marcescens (Serratia marcescens; [9]): 12.5 µg/mL
- MIC (μg/mL) C. diversus (Citrobacter diversus; [10]): 12.5 µg/mL
- MIC (E. coli DH5α): 25 µg/mL
- MIC (μg/mL) A. hydrophila (Aeromonas hydrophila; [11]): 25 µg/mL
